For 53 molecules, EC50 results are on record in BindingDB's records for doi:10.7270/Q2736PBV (Broad Institute, 2009).

The target in the experiment is T1, Streptokinase A (Streptococcus pyogenes serotype M1, UniProt P10520).
T1 sequence (P10520 whole entry): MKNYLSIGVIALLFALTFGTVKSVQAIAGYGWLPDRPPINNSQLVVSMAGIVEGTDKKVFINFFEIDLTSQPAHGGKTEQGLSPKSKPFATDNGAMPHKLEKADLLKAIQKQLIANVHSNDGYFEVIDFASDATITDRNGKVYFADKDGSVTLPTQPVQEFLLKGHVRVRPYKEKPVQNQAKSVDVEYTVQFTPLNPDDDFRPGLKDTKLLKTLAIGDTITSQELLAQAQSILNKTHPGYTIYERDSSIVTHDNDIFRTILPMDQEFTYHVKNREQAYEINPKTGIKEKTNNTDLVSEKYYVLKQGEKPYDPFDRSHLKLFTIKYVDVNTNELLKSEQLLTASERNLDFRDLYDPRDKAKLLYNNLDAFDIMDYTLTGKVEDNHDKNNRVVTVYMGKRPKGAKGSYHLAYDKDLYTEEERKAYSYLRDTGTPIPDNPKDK
The experiment can be described thus: S. pyogenes streptokinase expression inhibitors, potency, dose response, plasminogen activation absorbance, OD405 (AID 1914).
For the molecule `CC(=O)c1cccc2c1NC(=C1Nc3ccccc3C1=O)C2=O` [(2E)-7-ethanoyl-2-(3-oxidanylidene-1H-indol-2-ylidene)-1H-indol-3-one], the midpoint of the response, the EC50, lay at 116 µM. The value for `CCOC(=O)C1=C(Cc2ccc(CC)cc2)C(=O)c2ccccc2C1=O` [(2E,3Z)-2-[ethoxy(hydroxy)methylidene]-3-[(4-ethylphenyl)methylidene]naphthalene-1,4-dione] was > 150 µM; that for `Cc1ccc(SCC(=O)C(C#N)c2nc3ccccc3s2)cc1` (stereo not drawn) [(2Z)-2-(3H-1,3-benzothiazol-2-ylidene)-3-keto-4-(p-tolylthio)butyronitrile] was > 150 µM. With `N#CC(C(=O)COc1ccccc1)c1nc2ccccc2s1` (stereo not drawn) [(2Z)-2-(3H-1,3-benzothiazol-2-ylidene)-3-keto-4-phenoxy-butyronitrile], the midpoint of the response, the EC50, lay at 7.55 µM. Then `N#CC(C(=O)CN1CCN(c2ccccc2F)CC1)c1nc(-c2ccccc2)cs1` (stereo not drawn) [(2Z)-4-[4-(2-fluorophenyl)piperazin-1-yl]-3-oxidanylidene-2-(4-phenyl-3H-1,3-thiazol-2-ylidene)butanenitrile], with > 150 µM. Then `Cc1nc(N=NCc2ccc3c(c2)OCO3)sc1C` [(4,5-dimethylthiazol-2-yl)-(piperonylideneamino)amine], with > 150 µM; and `COc1ccc(C(=O)Oc2ccc(C(C)=O)cc2)c(OC)c1` [(4-acetylphenyl) 2,4-dimethoxybenzoate], with > 150 µM. Then `Cc1cc(N=NCc2ccc(O)c(C)c2O)nc(-c2ccccc2O)n1` [(4E)-3-hydroxy-2-methyl-4-[[[(2Z)-6-methyl-2-(6-oxo-1-cyclohexa-2,4-dienylidene)-1H-pyrimidin-4-yl]hydrazo]methylidene]-1-cyclohexa-2,5-dienone], with > 150 µM.

Turning to `Oc1ccc(CN=Nc2ccc3ccccc3c2)c(O)c1` [(4E)-3-hydroxy-4-[(2-naphthalenylhydrazo)methylidene]-1-cyclohexa-2,5-dienone], the EC50 is > 150 µM. Then `N=C(N)C1=CC(=O)/C(=C/C=c2ccc(=C(N)N)cc2)C=C1` [(4E)-4-[2-[4-[bis(azanyl)methylidene]cyclohexa-2,5-dien-1-ylidene]ethylidene]-3-oxidanylidene-cyclohexa-1,5-diene-1-carboximidamide;2-oxidanylethanesulfonic acid], with 20 µM. Then `COc1ccc(C2=N/C(=C\c3c(C)[nH]c4ccccc34)C(=O)O2)cc1` [(4Z)-2-(4-methoxyphenyl)-4-[(2-methyl-1H-indol-3-yl)methylidene]-1,3-oxazol-5-one], with > 150 µM; and `CCCOc1ccc(C(=O)C2C(=O)C(=O)N(c3ccccn3)C2c2ccc(OC)cc2)cc1C` (stereo not drawn) [(4Z)-4-[hydroxy-(3-methyl-4-propoxyphenyl)methylidene]-5-(4-methoxyphenyl)-1-(2-pyridinyl)pyrrolidine-2,3-dione], with 103 µM; and `C=CCN1C(=O)NC(=O)C(=C(CC)Nc2ccc(N(C)C)cc2)C1=O` [(5E)-5-[1-[4-(dimethylamino)anilino]propylidene]-1-prop-2-enyl-1,3-diazinane-2,4,6-trione], with > 150 µM. The value for `O=C1N=C(Nc2ccc(F)cc2)SC1=Cc1c[nH]c2ccccc12` [(5Z)-2-[(4-fluorophenyl)amino]-5-(1H-indol-3-ylmethylidene)-1,3-thiazol-4-one] was > 150 µM. As to `O=[N+]([O-])c1cc(Br)c(O)c(CN=Nc2nnnn2-c2cccc3ccccc23)c1` [(6E)-2-bromo-6-[[2-(1-naphthalen-1-yltetrazol-5-yl)hydrazinyl]methylidene]-4-nitrocyclohexa-2,4-dien-1-one], the half-maximal effective concentration (EC50) was > 150 µM.

Take `COc1cccc(N=NCc2cccc(Br)c2O)c1` [(6E)-2-bromo-6-[[2-(3-methoxyphenyl)hydrazinyl]methylidene]cyclohexa-2,4-dien-1-one]: the EC50 was found to be 19.6 µM. Then `COc1cccc(CN=Nc2cc(N3CCOCC3)ncn2)c1O` [(6E)-2-methoxy-6-[[N'-(6-morpholinopyrimidin-4-yl)hydrazino]methylene]cyclohexa-2,4-dien-1-one], with > 150 µM; and `CCOc1ccc(CN=Nc2cc(N3CCOCC3)nc(C)n2)c(O)c1` [(6E)-3-ethoxy-6-[[2-(2-methyl-6-morpholin-4-yl-pyrimidin-4-yl)hydrazinyl]methylidene]cyclohexa-2,4-dien-1-one], with > 150 µM; and `COc1cccc(CN=Nc2nc(Nc3ccccc3)nc(-n3nc(C)cc3C)n2)c1O` [(6E)-6-[[2-[4-(3,5-dimethylpyrazol-1-yl)-6-phenylazanyl-1,3,5-triazin-2-yl]hydrazinyl]methylidene]-2-methoxy-cyclohexa-2,4-dien-1-one], with > 150 µM. Then `CC(=N)C(C#N)C(=O)CSc1nc2cc(Cl)ccc2c(=O)n1Cc1ccco1` (stereo not drawn) [(E)-3-amino-2-[2-[7-chloro-3-(furan-2-ylmethyl)-4-oxoquinazolin-2-yl]sulfanylacetyl]but-2-enenitrile], with > 150 µM; and `CC(=N)C(C#N)C(=O)CSc1nc2scc(-c3ccccc3)c2c(=O)n1C` (stereo not drawn) [(E)-3-azanyl-2-[2-(3-methyl-4-oxidanylidene-5-phenyl-thieno[2,3-d]pyrimidin-2-yl)sulfanylethanoyl]but-2-enenitrile], with > 150 µM. The value for `Cc1ccc(F)c(NC(=O)C(C#N)C(=O)c2ccc(C(C)(C)C)cc2)c1` (stereo not drawn) [(Z)-2-(4-tert-butylphenyl)carbonyl-3-[(2-fluoranyl-5-methyl-phenyl)amino]-3-oxidanyl-prop-2-enenitrile] was > 150 µM; that for `Cc1ccc(C(=O)CC(=O)C(=O)NC23CC4CC(CC(C4)C2)C3)cc1` [(Z)-N-(1-adamantyl)-4-hydroxy-4-(4-methylphenyl)-2-oxobut-3-enamide] was > 150 µM; that for `CCOc1ccc2[nH]c(=O)c(CN(CC3COCCO3)C(=O)C3CC3)cc2c1` (stereo not drawn) [MLS000031787] was > 150 µM. Regarding `CC(C)c1oc(NC(=O)Nc2ccc(Cl)c(Cl)c2)nc1O` [MLS000053797], the EC50 was > 150 µM. Then `CCCCCCC1=Cc2c/c(=C3/NN=C(c4ccccc4)O3)c(=O)oc2=CC1=O` [MLS000068623], with > 150 µM; and `O=C1C2=C3C(=C/C1=C\NNC(=O)c1ccccc1O)CCCN3CCC2` [MLS000332414], with > 150 µM; and `Cc1cc(Br)c(OCc2ccc(C(=O)NN=C3CC4CCC=C34)cc2)c(Br)c1` (stereo not drawn) [MLS000335385], with > 150 µM.

On to `CC(C)CN1C(=O)/C(=N\NC(=O)c2cccc(S(=O)(=O)N3CCCCC3)c2)c2ccccc21` [MLS000417389], for which the EC50 was > 150 µM. Consider `CCCCCCCCOC(=O)C1C(C)=Nc2nnnn2C1c1cccs1` (stereo not drawn) [MLS000519969], for which the EC50 came to 50 µM. Regarding `CC(NNC(=O)c1ccccc1O)=C1C(=O)c2ccccc2C1=O` [MLS000523164], the EC50 is > 150 µM. In the case of `Clc1ccc(-c2ccc(CN=Nc3cc(N4CCOCC4)nc(N4CCOCC4)n3)o2)cc1` [MLS000527145], the EC50 was > 150 µM. As for `O=C1C=CC(N=Nc2ccc([N+](=O)[O-])cc2)C(O)=C1` (stereo not drawn) [MLS000530152], the 50% effective concentration (EC50) was 50 µM. Then `O=C1C([N+](=O)[O-])=CC(Cl)=CC1CN=Nc1ccccn1` (stereo not drawn) [MLS000539830], with 11.1 µM. The value for `O=NC(c1ccc(Cl)cc1Cl)c1ncc(C(F)(F)F)cc1Cl` (stereo not drawn) [MLS000540015] was 35.2 µM; that for `Cc1ccc(-n2c(=O)c3[nH][nH]n(CC(=O)N4N=C(c5cccc6ccccc56)CC4c4ccccc4)c=3c2=O)cc1` (stereo not drawn) [MLS000546672] was 35.7 µM; that for `CC(C)(C)C1CCC2=C(C#N)C(=N)C(C#N)(C#N)C(c3cccs3)C2C1` (stereo not drawn) [MLS000552642] was 25.7 µM. The value for `c1csc(CN=Nc2ncnc3sc4c(c23)CCC4)c1` [MLS000571423] was > 150 µM; that for `N#CC1C(=N)OC2=C(CCc3ccccc32)C1c1ccccc1Cl` (stereo not drawn) [MLS000586146] was 11.9 µM; that for `COc1ccc(C2C(C(=O)c3ccccc3)C(C)=Nc3nc4ccccc4n32)c(OC)c1` (stereo not drawn) [MLS000586747] was > 150 µM. For the molecule `COc1ccc(CN=Nc2cc(C)nc(-n3nc(C)cc3C)n2)c(OC)c1` [MLS000589396], the EC50 was > 150 µM. Take `O=C(O)c1ccc(N=NCc2ccc(OC(=O)c3ccccc3Cl)cc2)cc1` [MLS000589715]: the EC50 is > 150 µM. The molecule `C=Nc1c(N(C(C)=O)c2ccc(Br)cc2)c(O)c2ccccc2c1O` [MLS000700612] returned an EC50 of 23.9 µM. Molecule `CC(C)C(N=Nc1ccccc1[N+](=O)[O-])c1ccccc1` (stereo not drawn) [MLS000712651] displayed an EC50 of 18.4 µM.

`Oc1ccc(Br)cc1CN=Nc1nc(N2CCCCC2)nc(N2CCOCC2)n1` [MLS000713264] had an EC50 of 33.6 µM. Consider `CCOC(=O)c1ccc(NC(=O)Cc2sc(N=NCc3c[nH]c4ccccc34)nc2O)cc1` [MLS000722052], for which the EC50 is > 150 µM. On to `CC(N=Nc1ccc(C(=O)O)cc1)c1ccc2c(c1)Nc1ccccc1S2` (stereo not drawn) [MLS000759774], for which the EC50 is > 150 µM. Then `Cc1ccc(NC(=S)N/N=C2\C(=O)Nc3ccccc32)cc1` [MLS000760038], with > 150 µM. The value for `Cc1[nH]n(-c2nc3ccccc3[nH]2)c(=O)c1Cc1ccccc1` [MLS000762809] was > 150 µM; that for `CCCCCCC(=O)NNC=C1C(=O)NC(=S)N(CCCC)C1=O` [MLS000763126] was > 150 µM; that for `O=C1N=C(Nc2ccccc2)SC1=Cc1c[nH]c2ccccc12` [MLS000766635] was > 150 µM.

As to `COC1=CC(CN=Nc2nc3ccccc3s2)C=C([N+](=O)[O-])C1=O` (stereo not drawn) [MLS000777866], the EC50 is > 150 µM. Then `O=C1N=c2ccccc2=C1NNC(=S)N1CCOCC1` [MLS000778251], with > 150 µM.
